According to patent US12403088B2, “Ophthalmic compositions and methods for reducing oxidative damage to an eye lens” (University of Louisville Research Foundation, Inc., priority 2015, dated 2025):

System: excised porcine lenses
Test: Protein oxidation (OxyBlot) in excised porcine lenses cultured under hyperoxic conditions mimicking post-vitrectomy oxygen levels
Assay type: cell-based
Experimental: To assess the ability of the antioxidant compositions including non-reducing sugars to reduce oxidative damage to an eye lens of a subject, trehalose, a non-reducing disaccharide, was applied to lenses being cultured under hyperoxic (high oxygen) conditions that mimic post-vitrectomy intravitreal oxygen levels. Briefly, six excised porcine lenses were cultured in M199 media with 4% porcine serum at 37° C. for 1 week to acclimate to culture conditions. Then, 3 lenses were exposed to media with 7.5% trehalose while three control lenses remained untreated. At regular intervals, incubated lenses were examined under a dissecting microscope against a background of black gridlines. The oxygen concentration was controlled to mimic post-vitrectomy conditions. After 10 days, each lens was analyzed for protein oxidation using the OxBlot Oxidized Protein Detection Kit (Chemicon, International, Billerica, MA) to quantify the ability of the gel application method to protect the lens.
The method described above was used to compare the effect of a subject trehalose composition freely dispersed in the tissue culture media (FIG. 1, first bar) to a biogel composition that was described by Tezel et al. in WO2014081969A1 (“Compositions and methods for reducing oxidative damage”) and which includes trehalose within a polymer gel. […]

`OC[C@H]1O[C@H](O[C@H]2O[C@H](CO)[C@@H](O)[C@H](O)[C@H]2O)[C@H](O)[C@@H](O)[C@@H]1O` [trehalose, α,α-1,1-Trehalose] was tested, and the “amount of protein oxidation in the lens (in words)” value (administration of trehalose to the eye lens, ex vivo, FIG. 1) was “reduced an amount of protein oxidation in the lens” and the “reduction in protein oxidation levels to” value (trehalose composition freely dispersed in tissue culture media (7.5% trehalose), hyperoxic culture, 10 days, FIG. 1 bar 1) was “about 20%”.
